What is called inhibition is the percentage by which the read-out fell short of the control. The EC80 is the concentration at which the effect reaches the 80% level.

The test system of one test is Aureobasidium sp. Kind of test: Plate medium assay, industrial material deteriorating microorganism, Aureobasidium (Experimental Example 5). It is filed as cell-based. The conditions noted are these: treatment at 50 mg/l, PDA plate medium, read-out: growth inhibition grade. The protocol: (§1) In this Experimental Example, the fungicidal effects of the inventive compounds on various phytopathogenic fungi for plants and hazardous microorganism for industrial materials were examined by the methods described below. Each inventive compound was dissolved in 2 ml of dimethyl sulfoxide. 0.6 ml of this solution was added to 60 nil of a PDA medium (potato dextrose agar medium) at about 60 degrees C., which was mixed thoroughly in a 100-ml conical flask, and poured into a dish, where it was solidified, thereby obtaining a plate medium containing the inventive compound at 50 mg/L and 5 mg/L. On the other hand, a subject microorganism previously cultured on a plate medium was cut out using a cork borer whose diameter was 4 mm, and inoculated to the test compound-containing plate medium described above. […] The growth degree of the microorganism on the test compound-containing plate medium thus observed was compared with the growth degree of the microorganism in the untreated group, and % mycelial growth inhibition was calculated by the following equation. R=100(dc-dt)/dc wherein R=% mycelial extension inhibition, dc=flora diameter in untreated plate, dt=flora diameter in treated plate. The results obtained as described above were evaluated as one of the 5 grades according to the following criteria.

Another test has as its system Cladosporium sp. Briefly: Plate medium assay, industrial material deteriorating microorganism, Cladosporium (Experimental Example 5). It is filed as cell-based. As to conditions: treatment at 50 mg/l, PDA plate medium, read-out: growth inhibition grade. How it is done: as §1
Another test has as its system Trichoderma sp. Briefly: Plate medium assay, industrial material deteriorating microorganism, Trichoderma (Experimental Example 5). As to conditions: treatment at 50 mg/l, PDA plate medium, read-out: growth inhibition grade. It is filed as cell-based. The protocol:
as §1

The subject of the next test is Coriolus versicolor. Kind of test: Plate medium assay, wood denaturing microorganism Kawaratake (Experimental Example 5). Format: cell-based. The conditions noted are these: Trametes versicolor; treatment at 50 mg/l, PDA plate medium; read-out: growth inhibition grade. How it is done: as §1
A further test deals with Aspergillus sp. Briefly: Plate medium assay, industrial material deteriorating microorganism, Aspergillus (Experimental Example 5). As to conditions: treatment at 50 mg/l, PDA plate medium, read-out: growth inhibition grade. Format: cell-based. The protocol: as §1
The next test deals with Fusarium graminearum. Kind of test: whole plant or invertebrate. As to conditions: in Triticum aestivum, 168 h, read-out: Protective value. Format: in vivo.
Another test deals with Mucor sp. Kind of test: Plate medium assay, industrial material deteriorating microorganism, Mucor (Experimental Example 5). It is filed as cell-based. As to conditions: treatment at 50 mg/l, PDA plate medium, read-out: growth inhibition grade. How it is done:
as §1

In another test the test system is Botrytis cinerea. Briefly: Efficacy test against cucumber gray mold (Experimental Example 1). The conditions noted are these: 96 h, four days after inoculation, read-out: Protective value; for pest or weed control at 50 µg/mL: 50 mg/L sprayed at 1,000 L/ha; for pest or weed control at 100 µg/mL: 100 mg/L sprayed at 1,000 L/ha. Format: in vivo. The protocol: Onto a cucumber (variety:SHARP1) plant in its cotyledon phase grown using a square plastic pot (6 cm×6 cm), a wettable formulation such as Formulation Example 1 which was diluted and suspended in water at a certain concentrations (100 mg/L and 50 mg/L) was sprayed at a rate of 1,000 L/ha. The sprayed leaves were air-dried, and loaded with a paper disc (8 mm in diameter) soaked in a spore suspension of Botrytis cinerea, and kept at 20 degrees C. and a high humidity. Four days after inoculation, the cucumber gray mold lesion degree was investigated, and the protective value was calculated by the following equation. Protective value (%)=(1−mean lesion degree in sprayed plot/mean lesion degree in unsprayed plot)×100

Test [1] relates to Puccinia recondita. Kind of test: Efficacy test against wheat brown rust, 100 mg/L and 10 mg/L (Experimental Example 2). Format: in vivo. As to conditions: nine to 14 days after inoculation; for efficacy compared with compound (1): 10 mg/L sprayed at 1,000 L/ha; for pest or weed control at 100 µg/mL: Puccinia recondita, 336 h, 100 mg/L sprayed at 1,000 L/ha, read-out: Protective value. The protocol: Onto a wheat plant (variety: NORIN No. 61) grown to the two-leaf phase using a square plastic pot (6 cm×6 cm), a wettable formulation such as Formulation Example 1 which was diluted and suspended in water at a certain concentration (100 mg/L and 10 mg/L) was sprayed at a rate of 1,000 L/ha. The sprayed leaves were air-dried, and inoculated with spore suspension of Puccinia recondita (adjusted at 200 spores/vision, […] was added at 60 ppm) by spraying, and kept at 25 degrees C. and a high humidity for 48 hours. Thereafter, the plant was kept in a greenhouse. Nine to 14 days after inoculation, the wheat brown rust lesion degree was investigated, and the protective value was calculated by the following equation. Protective value (%)=(1-lesion degree in sprayed plot/lesion degree in unsprayed plot)×100

In test [2] the test system is Septoria tritici. Kind of test: Microplate test of biocidal effect on wheat Septoria blotch (Experimental Example 4). It is filed as cell-based. As to conditions: Zymoseptoria tritici, 240 h; % mycelium growth inhibition, absorbance 550 nm, 20 degrees C. for about 10 days; read-out: activity level (EC80). The protocol: A spore suspension of wheat Septoria blotch (Septoria tritici) (spore concentration: 1×10^6 cells/ml) was prepared, and subjected to 100-fold dilution with a PD medium. A flat 96-well microplate was provided and 1 microliter of the test compound solution formed by dissolution in dimethyl sulfoxide (DMSO) at a concentration 100 times the test concentration was dispensed to the microplate, and then 100 microliter of the medium containing the spore was added and stirred thoroughly. […] R=100×(dc−dt)/dc: R: % mycelium growth inhibition dc: Absorbance of non-treatment zone dt: Absorbance of treatment zone

In the next test the test system is Penicillium sp. Briefly: Plate medium assay, industrial material deteriorating microorganism, Penicillium (Experimental Example 5). Format: cell-based. The conditions noted are these: treatment at 50 mg/l, PDA plate medium, read-out: growth inhibition grade. The protocol: as §1
Test [3] deals with Puccinia recondita. Kind of test: Efficacy test against wheat brown rust, 1 mg/L (Experimental Example 10). It is filed as in vivo. The conditions noted are these: 1 g/ha (1 mg/L sprayed at 1,000 L/ha).
Test [4] has as its system Septoria tritici. Briefly: Assay for fungicidal effect on Septoria tritici, plate medium 1.25 mg/L (Experimental Example 9). It is filed as cell-based. How it is done: as §1, with “Each” for “In this Experimental Example, the fungicidal effects of the inventive compounds on various phytopathogenic fungi for plants and hazardous microorganism for industrial materials were examined by the methods described below. Each”, “R=100(dc−dt)/dc” for “R=100(dc-dt)/dc”, “criteria. […] In this Experimental Example, the fungicidal effects of the inventive compounds on Septoria tritici were examined by the methods described in the Experimental Example 5. In this Experimental Example, the inventive compounds were diluted at 1.25 mg/L.” for “criteria.”

The structures appear in SMILES notation.

As to `C[C@]1(CCl)CC[C@@H](Cc2cccc(Cl)c2)[C@]1(O)Cn1cncn1` (racemic) [Compound I-74, (1RS,2SR,5SR)-5-(3-chlorobenzyl)-2-chloromethyl-2-methyl-1-(1H-1,2,4-triazol-1-ylmethyl)cyclopentanol], the inhibition at 50 µg/mL in the test with Aureobasidium sp., in the test with Cladosporium sp., in the test with Trichoderma sp., with Coriolus versicolor, with Aspergillus sp. and with Mucor sp. was 60 to 80% throughout. In the test with Penicillium sp., the inhibition at 50 µg/mL lay within 60 to 80%. Moreover, the pest or weed control at 100 µg/mL with Fusarium graminearum is no less than 80%; with Botrytis cinerea it was no less than 80%; in the test on Puccinia recondita [1], no less than 90%. Moreover, the pest or weed control at 500 µg/mL with Fusarium graminearum is no less than 90%. The pest or weed control at 50 µg/mL with Botrytis cinerea is no less than 80%. In addition, the “efficacy compared with compound (1)” value with Puccinia recondita [1] is on record as “higher efficacy than that of compound (1)”. For the same molecule, in the test with Septoria tritici [2], the EC80 was no more than 0.2 µg/mL.
In the case of `C[C@]1(CBr)CC[C@@H](Cc2ccc(Cl)cc2)[C@]1(O)Cn1cncn1` (racemic) [Compound I-25, (1RS,2SR,5SR)-2-bromomethyl-5-(4-chlorobenzyl)-2-methyl-1-(1H-1,2,4-triazol-1-ylmethyl)cyclopentanol], the inhibition at 50 µg/mL in the test with Aureobasidium sp., in the test on Cladosporium sp., with Trichoderma sp., in the test with Coriolus versicolor, in the test on Aspergillus sp. and with Mucor sp. was 60 to 80% throughout. For the same molecule, the inhibition at 50 µg/mL in the test with Penicillium sp. was 60 to 80%. In addition, the pest or weed control at 100 µg/mL in the test on Fusarium graminearum is no less than 80%; in the test with Botrytis cinerea, no less than 80%; in the test on Puccinia recondita [1], no less than 90%. Further, the pest or weed control at 500 µg/mL with Fusarium graminearum was no less than 90%. Moreover, in the test with Puccinia recondita [1], the “efficacy compared with compound (1)” value is on record as “higher efficacy than that of compound (1)”. Besides, the EC80 in the test with Septoria tritici [2] is no more than 0.2 µg/mL.
With `CC(Cl)=C[C@@]1(C)CC[C@@H](Cc2ccc(Cl)cc2)[C@]1(O)Cn1cncn1` (racemic) [Compound I-15, (1RS,2RS,5SR)-5-(4-chlorobenzyl)-2-(2-chloropropenyl)-2-methyl-1-(1H-1,2,4-triazol-1-ylmethyl)cyclopentanol], the inhibition at 50 µg/mL in the test with Aureobasidium sp., with Cladosporium sp., in the test with Trichoderma sp., in the test with Coriolus versicolor, in the test with Aspergillus sp. and with Mucor sp. was 60 to 80% each time. Also, the inhibition at 50 µg/mL with Penicillium sp. was 60 to 80%. The pest or weed control at 500 µg/mL in the test with Fusarium graminearum was no less than 90%. The pest or weed control at 50 µg/mL with Botrytis cinerea is no less than 80%. Also, the pest or weed control at 100 µg/mL in the test on Botrytis cinerea is no less than 80%; with Puccinia recondita [1], no less than 90%. Moreover, the “efficacy compared with compound (1)” value in the test with Puccinia recondita [1] is on record as “higher efficacy than that of compound (1)”. The EC80 in the test with Septoria tritici [2] is no more than 0.2 µg/mL.
Take `CC1(C)CCC(Cc2ccc(Cl)cc2)C1(O)Cn1ncnc1S` (racemic) [compound (2)]: the lesion degree with Puccinia recondita [3] is 5 (50% or higher). Moreover, the growth inhibition grade in the test on Septoria tritici [4] is given as 1 (% Mycerial growth inhibition of less than 20%).
As for `C[C@]1(CBr)CC[C@@H](Cc2ccccc2)[C@]1(O)Cn1cncn1` (racemic) [Compound I-602, (1RS,2SR,5SR)-2-bromomethyl-5-benzyl-2-methyl-1-(1H-1,2,4-triazol-1-ylmethyl)cyclopentanol], the inhibition at 50 µg/mL in the test on Aureobasidium sp., in the test with Cladosporium sp., in the test with Trichoderma sp., in the test with Coriolus versicolor, in the test on Aspergillus sp. and in the test on Mucor sp. was 60 to 80% in each case. The inhibition at 50 µg/mL with Penicillium sp. was in the range of 60 to 80%. Also, the pest or weed control at 100 µg/mL is no less than 80% in the test with Fusarium graminearum, no less than 80% in the test with Botrytis cinerea and no less than 90% in the test with Puccinia recondita [1]. Besides, the pest or weed control at 500 µg/mL with Fusarium graminearum is no less than 90%. In the test on Botrytis cinerea, the pest or weed control at 50 µg/mL is no less than 80%. Also, the “efficacy compared with compound (1)” value with Puccinia recondita [1] was “higher efficacy than that of compound (1)”. For the same molecule, the EC80 in the test on Septoria tritici [2] is no more than 0.2 µg/mL.
For the molecule `C[C@]1(CBr)CC[C@@H](Cc2ccc(F)cc2)[C@]1(O)Cn1cncn1` (racemic) [Compound I-601, (1RS,2SR,5SR)-2-bromomethyl-5-(4-fluorobenzyl)-2-methyl-1-(1H-1,2,4-triazol-1-ylmethyl)cyclopentanol], the inhibition at 50 µg/mL in the test with Aureobasidium sp., with Cladosporium sp., in the test on Trichoderma sp., in the test with Coriolus versicolor, with Aspergillus sp. and with Mucor sp. was 60 to 80% each time. For the same molecule, the inhibition at 50 µg/mL in the test on Penicillium sp. was in the range of 60 to 80%. In addition, the pest or weed control at 100 µg/mL in the test on Fusarium graminearum was no less than 80%; in the test on Botrytis cinerea, no less than 80%; in the test on Puccinia recondita [1], no less than 90%. Moreover, in the test with Fusarium graminearum, the pest or weed control at 500 µg/mL is no less than 90%. For the same molecule, in the test on Botrytis cinerea, the pest or weed control at 50 µg/mL was no less than 80%. Besides, the “efficacy compared with compound (1)” value in the test on Puccinia recondita [1] is listed as “higher efficacy than that of compound (1)”. Also, in the test on Septoria tritici [2], the EC80 is no more than 0.2 µg/mL.
As to `C[C@@]1(CCCl)CC[C@@H](Cc2ccc(Cl)cc2)[C@]1(O)Cn1cncn1` (racemic) [Compound I-104, (1RS,2SR,5SR)-5-(4-chlorobenzyl)-2-(2-chloroethyl)-2-methyl-1-(1H-1,2,4-triazol-1-ylmethyl)cyclopentanol], the inhibition at 50 µg/mL with Aureobasidium sp., in the test with Cladosporium sp., in the test on Trichoderma sp., in the test on Coriolus versicolor, with Aspergillus sp. and in the test on Mucor sp. was 60 to 80% in each case. In the test on Penicillium sp., the inhibition at 50 µg/mL lay within 60 to 80%. For the same molecule, the figures for the pest or weed control at 100 µg/mL with Fusarium graminearum, with Botrytis cinerea and with Puccinia recondita [1] were no less than 80%, no less than 80% and no less than 90%, respectively. In addition, the pest or weed control at 500 µg/mL in the test with Fusarium graminearum is no less than 90%. Further, the pest or weed control at 50 µg/mL with Botrytis cinerea is no less than 80%. Moreover, the “efficacy compared with compound (1)” value in the test with Puccinia recondita [1] is listed as “higher efficacy than that of compound (1)”. Also, the EC80 in the test on Septoria tritici [2] was no more than 0.2 µg/mL.
